In patent publication US4551547A, “Biocidal 2-aryl-1, 3-cyclopentanedione enol ester compounds” (Union Carbide Corporation, priority 1983, dated 1985):
≈ marks a conversion by molar mass, not a printed value.

How the values were obtained:
[1] = system: two-spotted mite (adults and nymphal stages); assay: Mite Foliage Spray Test (adults and nymphs); assay type: in vivo, Tetranychus urticae (Koch); parameters: key to Miticidal, Adult: A: Excellent Control; B: Partial Control; No Control; details: for Miticidal, Adult: Table II, mortality count after four days
Procedure: Suspensions of the test compounds were prepared by dissolving one gram of compound in 50 milliliters of acetone in which had been dissolved 0.1 gram (10 percent of the weight of compound) of an alkylphenoxyethanol sufactant, as an emulsifying or dispersing agent. The resulting solution was mixed into 160 milliliters of water to give roughly 200 milliliters of a suspension containing the compound in finely divided form. The thus prepared stock suspension contained 0.5 percent by weight of compound. The test concentrations employed in the tests described below were obtained by diluting the stock suspension with water. The test procedures were as follows: Adults and nymphal stages of the two-spotted mite (Tetranychus urticae (Koch)), reared on Tender-green beam plants at 80±5° F. and 50±5 percent relative humidity, were the tests organisms. Infested leaves from a stock culture were placed of the primary leaves of two bean plants six to eight inches in height, growing in a two-and-a-half inch clay pot. 150-200 Mites, a sufficient number for testing, transferred from the excised leaves to the fresh plants in a period of twenty-four hours. Following the twenty-four hour transfer period, the excised leaves were removed from the infested plants. The test compounds were formulated by diluting the stock suspension with water to provide suspensions containing the desired amount of test compound per million parts of final formulation. The potted plants (one pot per compound) were placed on a revolving turntable and sprayed with 100-110 milliliters of tests compound formulation by use of a DeVilbis spray gun set at 40 psi, air pressure. This application, which lasted 30 seconds, was sufficient to wet the plants to run-off. As a control, 100-110 milliliters of a water solution containing acetone and emulsifier in the same concentrations as the test compound formulation, but containing no test compound, were also sprayed on infested plants. The sprayed plants were held at 80±5° F. and 50±5 percent relative humidity for four days, after which, a mortality count of motile forms was made on the leaves of the test plants. Any individual which was capable of locomotion upon prodding was considered living. In these tests the pesticidal activity of the compounds against mites and mite eggs was rated as follows: Tests were conducted in accordance with the procedures given at pages 17 to 21 supra. The results are expressed in the same manner as used in Table II, except with respect to miticidal activity. For mite adult and mite egg comparison purposes, results are given in parts per million (ppm) required for a 50 percent kill of mites or eggs, respectively.

Bean = assay: Post-emergent herbicidal test, bean; assay type: in vivo; parameters: key: 1: no perceptible injury; 2: intermediate degrees of injury; 3: intermediate degrees of injury; 4: intermediate degrees of injury; 5: the plant was dead; details: 2500 parts per million, after ten days; for Post-emergent Herbicidal, Bean: Table II
Procedure: (§1) Suspensions of the test compounds were prepared by dissolving one gram of compound in 50 milliliters of acetone in which had been dissolved 0.1 gram (10 percent of the weight of compound) of an alkylphenoxyethanol sufactant, as an emulsifying or dispersing agent. The resulting solution was mixed into 160 milliliters of water to give roughly 200 milliliters of a suspension containing the compound in finely divided form. The thus prepared stock suspension contained 0.5 percent by weight of compound. The test concentrations employed in the tests described below were obtained by diluting the stock suspension with water. The test procedures were as follows:
(§2) Experiments were also conducted to determine the phytotoxicity of representative compositions with respect to healthy fresh plants. Solutions of the compounds were prepared as described above to provide a concentration of 2500 parts per million of the test compound. The test plants were sprayed in accordance with the procedure described above for the Mite Foliage Spray Test so as to deliver approximately 100 milliliters of test solutions to the leaves of each plant tested. The sprayed plants and controls were set aside for approximately one hour to allow the solutions to dry and were then placed in the greenhouse. After ten days the plants were visually inspected to determine the extent of foliage injury. A rating of 1 indicates no perceptible injury; 5 indicates the plant was dead and ratings of 2, 3 and 4 indicate intermediate degrees of injury based upon the number and extent to which leaves were injured.

Corn = assay: Post-emergent herbicidal test, corn; assay type: in vivo; parameters: key: 1: no perceptible injury; 2: intermediate degrees of injury; 3: intermediate degrees of injury; 4: intermediate degrees of injury; 5: the plant was dead; details: 2500 parts per million, after ten days; for Post-emergent Herbicidal, Corn: Table II
Procedure: as §1, §2

Tomato = assay: Post-emergent herbicidal test, tomato; assay type: in vivo; parameters: key: 1: no perceptible injury; 2: intermediate degrees of injury; 3: intermediate degrees of injury; 4: intermediate degrees of injury; 5: the plant was dead; details: 2500 parts per million, after ten days; for Post-emergent Herbicidal, Tomato: Table II
Procedure: as §1, §2

Cotton = assay: Post-emergent herbicidal test, cotton; assay type: in vivo; parameters: key: 1: no perceptible injury; 2: intermediate degrees of injury; 3: intermediate degrees of injury; 4: intermediate degrees of injury; 5: the plant was dead; details: 2500 parts per million, after ten days; for Post-emergent Herbicidal, Cotton: Table II
Procedure: as §1, §2

Soybean = assay: Post-emergent herbicidal test, soybean; assay type: in vivo; parameters: key: 1: no perceptible injury; 2: intermediate degrees of injury; 3: intermediate degrees of injury; 4: intermediate degrees of injury; 5: the plant was dead; details: 2500 parts per million, after ten days; for Post-emergent Herbicidal, Soybean: Table II
Procedure: as §1, §2

Perennial rye grass = assay: Preliminary herbicide seed germination test (pre-emergent), perennial rye grass; assay type: in vivo, Solium perenne; parameters: key: 5: no seedling emerged; 4: few seedlings emerged and/or very severe stunting; 3: moderate reduction in stand and/or moderate stunting.; 2: very slight reduction in stand and/or slight stunting; 1: no injury, seedlings appear no different with respect to stand or growth than untreated controls; details: ten to twelve days after application
Procedure: as §1
(§3) The following seeds were used in this test:
Perennial rye grass--Solium perenne
(§4) Two […] mixtures were prepared as follows:
(§5) Each of the above mixtures was rolled separately in 5 gallon containers for approximately one-half hour on ball mill to insure uniform mixing of seeds and soil. For each compound four 3-inch pots were filled with soil to within 11/2 inches of top of pots. To two of these pots were added 70 cc. of Mixture I. To the remaining 2 pots were added 70 cc. of Mixture II. The seed-soil mixture was tamped firmly, and the pots were removed to the greenhouse and watered lightly. About 2 hours after planting, 25 milliliters of the test formulation were added to one pot containing Mixture I and one pot containing Mixture II. An equal volume of a water solution containing acetone and an emulsifier in the same concentration as the herbicidal mixture but without the candidate herbicide was also added to each of the soil-seed mixtures. These pots are used as check or control units. The test compounds were formulated by diluting the stock suspension with water to obtain the desired concentration of the compound in parts per million of the final formulation. Each compound was tested at the same concentration. […] Ratings were made according to the following designations: […]

[2] = system: Red root pigweed (Amaranthus); assay: Preliminary herbicide seed germination test (pre-emergent), red root pigweed; assay type: in vivo, Amaranthus retroflexus; parameters: key: 5: no seedling emerged; 4: few seedlings emerged and/or very severe stunting; 3: moderate reduction in stand and/or moderate stunting.; 2: very slight reduction in stand and/or slight stunting; 1: no injury, seedlings appear no different with respect to stand or growth than untreated controls; details: ten to twelve days after application
Procedure: as §1, §3
Red root pigweed--Amaranthus retroflexus
as §4, §5

Crabgrass = assay: Preliminary herbicide seed germination test (pre-emergent), crabgrass; assay type: in vivo, Digitaria sanguinalis; parameters: key: 5: no seedling emerged; 4: few seedlings emerged and/or very severe stunting; 3: moderate reduction in stand and/or moderate stunting.; 2: very slight reduction in stand and/or slight stunting; 1: no injury, seedlings appear no different with respect to stand or growth than untreated controls; details: ten to twelve days after application
Procedure: as §1, §3
Crabgrass--Digitaria sanguinalis
as §4, §5

SMILES: CCCCC(CC)C(=O)OC1=C(c2ccc(Cl)cc2Cl)C(=O)CC1 (centres unmarked) [Compound 5]
- Miticidal, Adult [1]: A
- Post-emergent Herbicidal, Bean (Bean): 3
- Post-emergent Herbicidal, Corn (Corn): 3
- Post-emergent Herbicidal, Tomato (Tomato): 2
- Post-emergent Herbicidal, Cotton (Cotton): 2
- Post-emergent Herbicidal, Soybean (Soybean): 2
- Pre-emergent Herbicidal, Rye (Perennial rye grass; Table II): 1
- Pre-emergent Herbicidal, Amaranthus ([2]; Table II): 1

SMILES: Cc1ccccc1C1=C(OC(=O)C(C)(C)C)C2CCCCC2C1=O (centres unmarked) [Compound 22]
- Miticidal, Adult [1]: A
- Post-emergent Herbicidal, Bean (Bean): 2
- Post-emergent Herbicidal, Corn (Corn): 5
- Post-emergent Herbicidal, Tomato (Tomato): 1
- Post-emergent Herbicidal, Cotton (Cotton): 3
- Post-emergent Herbicidal, Soybean (Soybean): 3
- Pre-emergent Herbicidal, Rye (Perennial rye grass; Table II): 5
- Pre-emergent Herbicidal, Crabgrass (Crabgrass; Table II): 3
- Pre-emergent Herbicidal, Amaranthus ([2]; Table II): 2

SMILES: CCCCC(CC)C(=O)OC1=C(c2ccccc2C)C(=O)CC1 (centres unmarked) [Compound 7]
- Miticidal, Adult [1]: A
- Post-emergent Herbicidal, Bean (Bean): 2
- Post-emergent Herbicidal, Corn (Corn): 2
- Post-emergent Herbicidal, Tomato (Tomato): 2
- Post-emergent Herbicidal, Cotton (Cotton): 2
- Post-emergent Herbicidal, Soybean (Soybean): 2
- Pre-emergent Herbicidal, Rye (Perennial rye grass; Table II): 5
- Pre-emergent Herbicidal, Crabgrass (Crabgrass; Table II): 3
- Pre-emergent Herbicidal, Amaranthus ([2]; Table II): 3

SMILES: Cc1ccccc1C1=C(OC(=O)C(C)(C)C)c2ccccc2C1=O [reference compound]
- LC50 ([1]; Tetranychus urticae, foliar, Table III, ppm required for a 50 percent kill of mites, read-out: Miticidal LD50, Adult): 100 µg/mL (≈ 312 µM)
- Post Emergent Herbicidal, Bean (Bean; Table III): 1
- Post Emergent Herbicidal, Corn (Corn; Table III): 1
- Post Emergent Herbicidal, Tomato (Tomato; Table III): 1
- Post Emergent Herbicidal, Cotton (Cotton; Table III): 1
- Post Emergent Herbicidal, Soybean (Soybean; Table III): 0
- Pre-emergent Herbicidal, Rye (Perennial rye grass; Table III): 2
- Pre-emergent Herbicidal, Crabgrass (Crabgrass; Table III): 2
- Pre-emergent Herbicidal, Amaranthus ([2]; Table III): 2

SMILES: CCCCCCCCCCCCCCCC(=O)OC1=C(c2ccc(Cl)cc2Cl)C(=O)CC1 [Compound 6]
- Miticidal, Adult [1]: A
- Post-emergent Herbicidal, Bean (Bean): 1
- Post-emergent Herbicidal, Corn (Corn): 1
- Post-emergent Herbicidal, Tomato (Tomato): 1
- Post-emergent Herbicidal, Cotton (Cotton): 1
- Post-emergent Herbicidal, Soybean (Soybean): 1
- Pre-emergent Herbicidal, Rye (Perennial rye grass; Table II): 1
- Pre-emergent Herbicidal, Amaranthus ([2]; Table II): 1

SMILES: CC(=O)OC1=C(c2ccc(Cl)cc2Cl)C(=O)CC1 [Compound 3]
- Miticidal, Adult [1]: A
- Post-emergent Herbicidal, Bean (Bean): 2
- Post-emergent Herbicidal, Corn (Corn): 3
- Post-emergent Herbicidal, Tomato (Tomato): 2
- Post-emergent Herbicidal, Cotton (Cotton): 2
- Post-emergent Herbicidal, Soybean (Soybean): 2
- Pre-emergent Herbicidal, Rye (Perennial rye grass; Table II): 2
- Pre-emergent Herbicidal, Amaranthus ([2]; Table II): 2

SMILES: CC(C)C(=O)OC1=C(c2ccc(Cl)cc2Cl)C(=O)CC1 [Compound 4]
- Miticidal, Adult [1]: B
- Post-emergent Herbicidal, Bean (Bean): 2
- Post-emergent Herbicidal, Corn (Corn): 4
- Post-emergent Herbicidal, Tomato (Tomato): 2
- Post-emergent Herbicidal, Cotton (Cotton): 2
- Post-emergent Herbicidal, Soybean (Soybean): 2
- Pre-emergent Herbicidal, Rye (Perennial rye grass; Table II): 1
- Pre-emergent Herbicidal, Amaranthus ([2]; Table II): 1
